Like-named read-outs stand apart in the source and are kept apart here.
Tested on: T. gondii bradyzoites (EGS strain)
Assay: EGS strain bradyzoite assay (cysts in HFF, dolichos/BAG1 staining)
Assay type: cell-based, Toxoplasma gondii
Settings: for IC50: EGS strain
Protocol: (§1) HFF cells were grown in IMDM (1×, [+] glutamine, [+] 25 mM HEPES, [+] Phenol red, 10% FBS, [Gibco, Denmark]) on removable, sterile glass disks in the bottom of a clear, flat-bottomed 24-well plate. Cultures were infected with 3×10^4 parasites (EGS strain) per well, in 0.5 mL media and plate was returned to incubator at 37° C. overnight. The following day, the media was removed and clear IMDM and compounds were added to making various concentrations of the drug, to a total volume of 0.5 mL. Two wells were filled with media only, as a control. Plates were returned to the 37° C. incubator for 72 hours.
Efficacy was determined following fixation. Staining was used to determine the numbers of cysts in cultures without and with treatment with the test compounds. Cells were fixed using 4% paraformaldehyde and stained with Fluorescein-labeled Dolichos Biflorus Agglutinin, DAPI, and anti-BAG1, and anti-SAG1. Disks were removed and mounted onto glass slides and visualized using microscopy (Nikon Tl7). Slides were also scanned using a CRi Pannoramic Scan Whole Slide Scanner and viewed using Panoramic Viewer Software.
as §1, with “[gibco,” for “[Gibco,”, “2” for “Two”, “72 hours, and checked once every 24” for “72”, “hours. If tachyzoites were visible in the control before 72 hours, the cells were fixed and stained.” for “hours.”
Cells were fixed using 4% paraformaldehyde and stained with Fluorescein-labeled Dolichos Biflorus Agglutinin, DAPI, and BAG1. Disks were removed and mounted onto glass slides and visualized using microscopy (Nikon Tl7). Slides were scanned using a CRi Pannoramic Scan Whole Slide Scanner and viewed using Panoramic Viewer Software. Effects of the compounds were quantified by counting cysts in the controls and treated cells. Cysts and persisting organisms were counted in a representative field of view and then multiplied by a factor determined by the total area of the disk in order to estimate the number of cysts and organisms in each condition.
HFF cells were grown in IMDM (1×, [+] glutamine, [+] 25 mM HEPES, [+] Phenol red, 10% FBS, [gibco, Denmark]) on removable, sterile glass disks in the bottom of a clear, flat-bottomed 24-well plate. Cultures were infected with 3×10^4 parasites (EGS strain) per well, in 0.5 mL media and plate was returned to incubator at 37° C. overnight. The following day, the media was removed and clear IMDM and compounds were added to making various concentrations of the drug, to a total volume of 0.5 mL. 2 wells were filled with media only, as a control. Plates were returned to the 37° C. incubator for 72 hours, and checked once every 24 hours. If tachyzoites were visible in the control before 72 hours, the cells were fixed and stained. Cells were fixed using 4% paraformaldehyde and stained with Fluorescein-labeled Dolichos Biflorus Agglutinin, DAPI, and BAG1. Disks were removed and mounted onto glass slides and visualized using microscopy (Nikon Tl7). Slides were scanned using a CRi Pannoramic Scan Whole Slide Scanner and viewed using Panoramic Viewer Software. Effects of the compounds were quantified by counting cysts in the controls and treated cells. Cysts and persisting organisms were counted in a representative field of view and then multiplied by a factor determined by the total area of the disk in order to estimate the number of cysts and organisms in each condition. Data was collected using Gen5 software. IC50 was calculated by graphical analysis in Excel.

Compound	reduction in the number of true cysts and small organisms (1 μM and 10 μM, EGS)	IC90 (Toxoplasma gondii, read-out: IC 90 against bradyzoites) [µM]	Pseudocysts (part a, 1 μM)	Small organisms (part a, 1 μM)	True Cysts (part a, 1 μM)	Pseudocysts (part a, 10 μM)	Small organisms (part a, 10 μM)	True Cysts (part a, 10 μM)	Pseudocysts (part b, 1 μM)	Small organisms (part b, 1 μM)	True Cysts (part b, 1 μM)	Pseudocysts (part b, 10 μM)	Small organisms (part b, 10 μM)	True Cysts (part b, 10 μM)	reduction of EGS bradyzoites in cysts in vitro	IC50 (Toxoplasma gondii, read-out: Brady IC50) [µM]	IC50 (Toxoplasma gondii, read-out: T. gondii Bradyzoite IC50) [µM]
Cc1[nH]c2c(c(=O)c1-c1ccc(Oc3ccc(OC(F)(F)F)cc3)cc1)CCCC2 [JAG21, 2-methyl-3-(4-(4-(trifluoromethoxy)phenoxy)phenyl)-5,6,7,8-tetrahydroquinolin-4(1H)-one]	statistically significant reduction	0.5	29 ± 6	90.5 ± 33.5	0.5 ± 0.6	25.5 ± 5.1	73.25 ± 30.9	0.25 ± 0.5	2955	9734	54	2638	7309	22			
Cc1[nH]c2c(c(=O)c1-c1ccc(Oc3ccccc3)cc1)CCCC2 [MJM170]															markedly reduces EGS bradyzoites in cysts	1 to 10	4

— patent US11414385B2, “Compounds and methods for treating, detecting, and identifying compounds to treat apicomplexan parasitic diseases” (The University of Chicago, priority 2015, dated 2022)
